According to ChEMBL document CHEMBL1201862, “PubChem BioAssay data set” (2004):
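Growth conditions: 96-well plates. Treatment: test compound, 48 hours, 5 concentrations. Analysis: linear interpolation between bracketing concentrations; unreached endpoints set to highest concentration. Abbreviation: GI50, concentration required for 50% inhibition of growth.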 Active and inactive are the calls of the source. Cut-off read from the data, not from the text of the source: active = GI50 up to about 1.1 µM and inactive = higher.

Assays:
Test in all cases: NCI anticancer screen, dose series, 48 h
[1] = tested on: SF-295
[2] = tested on: HOP-92
[3] = tested on: SK-MEL-2
[4] = tested on: UACC-257
[5] = tested on: SK-OV-3
[6] = tested on: HOP-62
[7] = tested on: NCI-H226
[8] = tested on: NCI-H460
[9] = tested on: 786-0
[10] = tested on: BT-549
[11] = tested on: LOX IMVI
[12] = tested on: HCT-116
[13] = tested on: SK-MEL-28
[14] = tested on: CAKI-1
[15] = tested on: T47D
[16] = tested on: IGROV-1
[17] = tested on: HT-29
[18] = tested on: CCRF-CEM
[19] = tested on: UACC-62
[20] = tested on: SF-268
[21] = tested on: OVCAR-4
[22] = tested on: HL-60
[23] = tested on: NCI-H522
[24] = tested on: SW-620
[25] = tested on: OVCAR-5
[26] = tested on: HCC 2998
[27] = tested on: RPMI-8226
[28] = tested on: TK-10
[29] = tested on: RXF 393
[30] = tested on: KM12
[31] = tested on: Malme-3M
[32] = tested on: SR
[33] = tested on: U-251
[34] = tested on: Hs-578T
[35] = tested on: SN12C
[36] = tested on: MDA-N
[37] = tested on: COLO 205
[38] = tested on: DU-145
[39] = tested on: A549
[40] = tested on: OVCAR-3
[41] = tested on: M14
[42] = tested on: PC-3
[43] = tested on: A498
[44] = tested on: ACHN
[45] = tested on: EKVX
[46] = tested on: UO-31
[47] = tested on: SF-539
[48] = tested on: MOLT-4
[49] = tested on: NCI/ADR-RES
[50] = tested on: SNB-19
[51] = tested on: OVCAR-8
[52] = tested on: SK-MEL-5
[53] = tested on: K562
[54] = tested on: MDA-MB-231
[55] = tested on: MCF7
[56] = tested on: HCT-15
[57] = tested on: MDA-MB-435
[58] = tested on: NCI-H23
[59] = tested on: SNB-75

O=c1c2ncn(CCCl)c2n(-c2ccccc2)c(=S)n1-c1ccccc1
GI50 [1]: > 100 µM (inactive)
GI50 [2]: > 100 µM (inactive)
GI50 [3]: > 100 µM (inactive)
GI50 [4]: > 100 µM (inactive)
GI50 [5]: > 100 µM (inactive)
GI50 [6]: > 100 µM (inactive)
GI50 [7]: > 100 µM (inactive)
GI50 [8]: > 100 µM (inactive)
GI50 [9]: > 100 µM (inactive)
GI50 [10]: > 100 µM (inactive)
GI50 [11]: > 100 µM (inactive)
GI50 [12]: > 100 µM (inactive)
GI50 [13]: > 100 µM (inactive)
GI50 [14]: > 100 µM (inactive)
GI50 [15]: > 100 µM (inactive)
GI50 [16]: > 100 µM (inactive)
GI50 [17]: > 100 µM (inactive)
GI50 [18]: > 100 µM (inactive)
GI50 [19]: > 100 µM (inactive)
GI50 [20]: > 100 µM (inactive)
GI50 [21]: > 100 µM (inactive)
GI50 [22]: > 100 µM (inactive)
GI50 [23]: > 100 µM (inactive)
GI50 [24]: > 100 µM (inactive)
GI50 [25]: > 100 µM (inactive)
GI50 [26]: > 100 µM (inactive)
GI50 [27]: > 100 µM (inactive)
GI50 [28]: > 100 µM (inactive)
GI50 [29]: > 100 µM (inactive)
GI50 [30]: > 100 µM (inactive)
GI50 [31]: > 100 µM (inactive)
GI50 [32]: > 100 µM (inactive)
GI50 [33]: > 100 µM (inactive)
GI50 [34]: 69.5 µM (inactive)
GI50 [35]: > 100 µM (inactive)
GI50 [36]: > 100 µM (inactive)
GI50 [37]: > 100 µM (inactive)
GI50 [38]: > 100 µM (inactive)
GI50 [39]: > 100 µM (inactive)
GI50 [40]: > 100 µM (inactive)
GI50 [41]: > 100 µM (inactive)
GI50 [42]: > 100 µM (inactive)
GI50 [43]: > 100 µM (inactive)
GI50 [44]: > 100 µM (inactive)
GI50 [45]: > 100 µM (inactive)
GI50 [46]: 99.5 µM (inactive)
GI50 [47]: > 100 µM (inactive)
GI50 [48]: > 100 µM (inactive)
GI50 [49]: > 100 µM (inactive)
GI50 [50]: > 100 µM (inactive)
GI50 [51]: > 100 µM (inactive)
GI50 [52]: > 100 µM (inactive)
GI50 [53]: 86.9 µM (inactive)
GI50 [54]: > 100 µM (inactive)
GI50 [55]: > 100 µM (inactive)
GI50 [56]: > 100 µM
GI50 [57]: > 100 µM (inactive)
GI50 [58]: > 100 µM (inactive)

CCN1/C(=C/C#C/C(C)=C\c2sc3ccc(Cl)cc3[n+]2CC)Sc2ccc(Cl)cc21
GI50 [1]: 3.4 µM (inactive)
GI50 [2]: 1.58 µM (inactive)
GI50 [3]: 1.98 µM (inactive)
GI50 [4]: 3.34 µM (inactive)
GI50 [5]: 5.55 µM (inactive)
GI50 [6]: 4.88 µM (inactive)
GI50 [7]: 3.82 µM (inactive)
GI50 [8]: 3.02 µM (inactive)
GI50 [9]: 3.1 µM (inactive)
GI50 [10]: 2.14 µM (inactive)
GI50 [11]: 3.31 µM (inactive)
GI50 [12]: 2.57 µM (inactive)
GI50 [13]: 9.77 µM (inactive)
GI50 [14]: 2.82 µM (inactive)
GI50 [15]: 2.9 µM (inactive)
GI50 [16]: 4 µM (inactive)
GI50 [17]: 3.08 µM (inactive)
GI50 [18]: 0.389 µM (active)
GI50 [19]: 3.32 µM (inactive)
GI50 [20]: 5.22 µM (inactive)
GI50 [21]: 6.53 µM (inactive)
GI50 [23]: 1.56 µM (inactive)
GI50 [24]: 2.43 µM (inactive)
GI50 [25]: 7.94 µM (inactive)
GI50 [26]: 4.07 µM (inactive)
GI50 [27]: 1.67 µM (inactive)
GI50 [28]: 4.28 µM (inactive)
GI50 [29]: 5.6 µM (inactive)
GI50 [30]: 3.1 µM (inactive)
GI50 [31]: 1.85 µM (inactive)
GI50 [32]: 0.668 µM (active)
GI50 [33]: 3.3 µM (inactive)
GI50 [34]: 4.72 µM (inactive)
GI50 [35]: 3.57 µM (inactive)
GI50 [36]: 3.13 µM (inactive)
GI50 [37]: 1.66 µM (inactive)
GI50 [38]: 3.68 µM (inactive)
GI50 [39]: 3.57 µM (inactive)
GI50 [41]: 3.62 µM (inactive)
GI50 [42]: 2.33 µM (inactive)
GI50 [44]: 3.38 µM (inactive)
GI50 [45]: 4.25 µM (inactive)
GI50 [46]: 3.85 µM (inactive)
GI50 [47]: 3.57 µM (inactive)
GI50 [59]: 2.61 µM (inactive)
GI50 [49]: 15.7 µM (inactive)
GI50 [50]: 4.09 µM (inactive)
GI50 [51]: 3.24 µM (inactive)
GI50 [52]: 2.09 µM (inactive)
GI50 [53]: 0.552 µM (active)
GI50 [54]: 5.93 µM (inactive)
GI50 [55]: 3.73 µM (inactive)
GI50 [56]: 4.61 µM
GI50 [57]: 2.94 µM (inactive)
